Measurements taken from the NIST ThermoML archive (doi:10.1016/j.fluid.2006.12.016).

Conditions: 101.33 kPa, Liquid

CCCCn1cc[n+](C)c1.F[B-](F)(F)F [1-butyl-3-methylimidazolium tetrafluoroborate]
Conditions	mass density [kg/m3]	viscosity [mPa·s]
293.15 K	1205.89	136.3
294.15 K	1205.17	–
295.15 K	1204.46	–
296.15 K	1203.73	–
297.15 K	1203	–
298.15 K	1202.3	103.8
299.15 K	1201.57	–
300.15 K	1200.85	–
301.15 K	1200.13	–
302.15 K	1199.43	–
303.15 K	1198.71	80.6
304.15 K	1198	–
305.15 K	1197.28	–
306.15 K	1196.58	–
307.15 K	1195.85	–
308.15 K	1195.16	64
309.15 K	1194.44	–
310.15 K	1193.73	–
311.15 K	1193.02	–
312.15 K	1192.32	–
313.15 K	1191.63	51.5
314.15 K	1190.9	–
315.15 K	1190.2	–
316.15 K	1189.49	–
317.15 K	1188.78	–
318.15 K	1188.08	42.1
319.15 K	1187.36	–
320.15 K	1186.66	–
321.15 K	1185.96	–
322.15 K	1185.27	–
323.15 K	1184.55	34.9

CCCCCCn1cc[n+](C)c1.F[B-](F)(F)F [1-hexyl-3-methylimidazolium tetrafluoroborate]
Conditions	mass density [kg/m3]	viscosity [mPa·s]
288.15 K	1151.49	315.7
289.15 K	1150.78	–
290.15 K	1150.08	–
291.15 K	1149.37	–
292.15 K	1148.66	–
293.15 K	1147.96	232.8
294.15 K	1147.25	–
295.15 K	1146.56	–
296.15 K	1145.85	–
297.15 K	1145.15	–
298.15 K	1144.45	174.1
299.15 K	1143.75	–
300.15 K	1143.04	–
301.15 K	1142.34	–
302.15 K	1141.65	–
303.15 K	1140.96	132.1
304.15 K	1140.25	–
305.15 K	1139.56	–
306.15 K	1138.87	–
307.15 K	1138.16	–
308.15 K	1137.48	103
309.15 K	1136.77	–
310.15 K	1136.08	–
311.15 K	1135.39	–
312.15 K	1134.7	–
313.15 K	1134.03	81.7
314.15 K	1133.33	–
315.15 K	1132.64	–
316.15 K	1131.95	–
317.15 K	1131.28	–
318.15 K	1130.59	65.9
319.15 K	1129.9	–
320.15 K	1129.22	–
321.15 K	1128.53	–
322.15 K	1127.87	–
323.15 K	1127.17	53.9

CCCCCCCC[n+]1ccn(C)c1.F[B-](F)(F)F [1-methyl-3-octylimidazolium tetrafluoroborate]
Conditions	mass density [kg/m3]	viscosity [mPa·s]
288.15 K	1110.37	412.3
289.15 K	1109.66	–
290.15 K	1108.98	–
291.15 K	1108.29	–
292.15 K	1107.6	–
293.15 K	1106.92	300.9
294.15 K	1106.24	–
295.15 K	1105.55	–
296.15 K	1104.87	–
297.15 K	1104.18	–
298.15 K	1103.51	222.8
299.15 K	1102.82	–
300.15 K	1102.13	–
301.15 K	1101.45	–
302.15 K	1100.77	–
303.15 K	1100.09	168.9
304.15 K	1099.41	–
305.15 K	1098.73	–
306.15 K	1098.05	–
307.15 K	1097.35	–
308.15 K	1096.69	131.2
309.15 K	1096	–
310.15 K	1095.32	–
311.15 K	1094.64	–
312.15 K	1093.96	–
313.15 K	1093.29	102.9
314.15 K	1092.6	–
315.15 K	1091.92	–
316.15 K	1091.25	–
317.15 K	1090.57	–
318.15 K	1089.89	81.8
319.15 K	1089.23	–
320.15 K	1088.54	–
321.15 K	1087.88	–
322.15 K	1087.21	–
323.15 K	1086.51	66.7
